We go through two compounds from PMC2099433, “The binding site for neohesperidin dihydrochalcone at the human sweet taste receptor” (BMC Structural Biology, 2007).

Changes are numbered by the printed parent chain. Where a SMILES comes first, the peptide text is derived from it.

The target of assay [1] is T1, hTAS1R2 + hTAS1R3 Q637E^3.29 (Homo sapiens, UniProt Q7RTX0+Q8TE23, Q637E).
T1 construct: expressed in transfected cells; host or cells: HEK293T cells stably expressing G16Gust44
T1 sequence (Q8TE23 20-839): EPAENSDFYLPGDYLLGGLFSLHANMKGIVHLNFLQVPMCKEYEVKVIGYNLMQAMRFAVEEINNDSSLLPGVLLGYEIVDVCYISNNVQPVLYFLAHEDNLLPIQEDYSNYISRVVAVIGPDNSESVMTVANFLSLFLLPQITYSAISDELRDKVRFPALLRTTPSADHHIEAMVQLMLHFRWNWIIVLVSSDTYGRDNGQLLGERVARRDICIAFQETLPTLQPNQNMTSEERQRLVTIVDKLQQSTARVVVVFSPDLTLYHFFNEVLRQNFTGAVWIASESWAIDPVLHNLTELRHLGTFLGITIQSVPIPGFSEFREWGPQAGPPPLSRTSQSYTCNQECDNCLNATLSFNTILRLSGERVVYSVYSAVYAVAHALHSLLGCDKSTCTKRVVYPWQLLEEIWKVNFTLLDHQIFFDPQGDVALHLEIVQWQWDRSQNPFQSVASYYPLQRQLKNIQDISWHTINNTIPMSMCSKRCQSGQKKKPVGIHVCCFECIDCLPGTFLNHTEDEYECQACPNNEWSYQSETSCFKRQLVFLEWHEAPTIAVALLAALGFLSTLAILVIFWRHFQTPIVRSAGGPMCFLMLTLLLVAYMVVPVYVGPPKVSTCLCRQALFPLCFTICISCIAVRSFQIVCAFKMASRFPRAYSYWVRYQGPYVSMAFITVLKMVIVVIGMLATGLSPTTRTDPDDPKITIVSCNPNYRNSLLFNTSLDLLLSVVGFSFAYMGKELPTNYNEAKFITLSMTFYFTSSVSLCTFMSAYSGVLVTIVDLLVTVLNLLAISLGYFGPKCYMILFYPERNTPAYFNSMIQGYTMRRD
T1 sequence (Q7RTX0 21-852 Q637E): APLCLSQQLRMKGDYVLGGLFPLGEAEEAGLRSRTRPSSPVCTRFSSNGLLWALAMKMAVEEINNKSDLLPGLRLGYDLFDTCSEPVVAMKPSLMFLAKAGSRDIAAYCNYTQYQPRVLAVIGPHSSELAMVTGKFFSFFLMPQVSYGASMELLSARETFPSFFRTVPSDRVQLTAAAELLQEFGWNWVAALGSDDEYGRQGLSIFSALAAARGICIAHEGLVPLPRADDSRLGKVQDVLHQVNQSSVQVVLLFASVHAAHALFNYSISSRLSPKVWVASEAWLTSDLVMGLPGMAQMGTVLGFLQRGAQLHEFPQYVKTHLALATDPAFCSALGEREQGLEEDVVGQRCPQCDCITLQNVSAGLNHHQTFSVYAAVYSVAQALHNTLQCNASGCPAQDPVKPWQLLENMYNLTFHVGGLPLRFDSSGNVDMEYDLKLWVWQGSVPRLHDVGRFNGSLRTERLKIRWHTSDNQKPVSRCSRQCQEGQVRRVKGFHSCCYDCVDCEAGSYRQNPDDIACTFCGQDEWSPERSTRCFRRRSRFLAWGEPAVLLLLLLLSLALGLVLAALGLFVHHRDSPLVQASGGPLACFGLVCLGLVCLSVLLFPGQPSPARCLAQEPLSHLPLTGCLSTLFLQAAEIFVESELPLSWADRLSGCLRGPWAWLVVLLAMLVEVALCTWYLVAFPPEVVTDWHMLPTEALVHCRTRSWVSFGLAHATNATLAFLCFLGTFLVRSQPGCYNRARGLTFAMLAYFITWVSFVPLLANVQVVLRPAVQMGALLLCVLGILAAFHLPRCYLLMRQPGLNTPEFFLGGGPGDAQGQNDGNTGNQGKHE
Kind of assay: Calcium response (FLIPR), hTAS1R3 mutant coexpressed with hTAS1R2. The format is cell-based. The conditions noted are these: variant Q637E^3.29; for Emax: read-out: maximal signal (% of wt). Put shortly:
(§1)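 HEK293T/G16Gust44, transient transfection of HSV-tagged TAS1R2 + TAS1R3 mutants; Fluo4-AM loading 1 h at 24 h; sweet tastants in C1 solution; FLIPR Ca2+ read; ΔF/F, mock-subtracted; ≥3 independent expts in duplicate.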

Assay [2] has as its target T2, hTAS1R2 + hTAS1R3 A733V^5.46 (Homo sapiens, UniProt Q7RTX0+Q8TE23, A733V).
T2 construct: expressed in transfected cells; host or cells: HEK293T cells stably expressing G16Gust44
T2 sequence (Q8TE23 20-839): T1 sequence (Q8TE23 20-839)
T2 sequence (Q7RTX0 21-852 A733V): T1 sequence (Q7RTX0 21-852 Q637E) with E617Q, A713V
Described as above. It is filed as cell-based. The conditions noted are these: variant A733V^5.46; for Emax: read-out: maximal signal (% of wt). Put shortly:
as §1

On to `COc1ccc(CCC(=O)c2c(O)cc(O[C@@H]3O[C@H](CO)[C@@H](O)[C@H](O)[C@H]3O[C@@H]3O[C@@H](C)[C@H](O)[C@@H](O)[C@H]3O)cc2O)cc1O` [NHDC, neohesperidin dihydrochalcone], for which, in assay [1], the EC50 came to 1500 ± 400 µM and the Emax came out at 51 ± 13%. Besides, in assay [2], the EC50 came to 100 ± 20 µM and the Emax turned out to be 133 ± 8%.
The corresponding values for `COC(=O)[C@H](Cc1ccccc1)NC(=O)[C@@H](N)CC(=O)O` [aspartame] (HELM PEPTIDE1{D.F.[CO[*:1]]}$$$$V2.0) are 1700 ± 200 µM, 51 ± 10%, 1100 ± 300 µM and 92 ± 80%.

As a reminder, the EC50 is the concentration at which the effect is half-maximal.
